{"source": "patent US12522562B2", "about": "“Intestine-specific partial agonists of farnesoid X receptor and uses thereof” (EWHA DrugDesignHouse Co., Ltd., priority 2022, dated 2026)", "key": {"Erα": {"target": "T1, Erα (Homo sapiens, UniProt P03372)", "T1 sequence (P03372 1-595)": "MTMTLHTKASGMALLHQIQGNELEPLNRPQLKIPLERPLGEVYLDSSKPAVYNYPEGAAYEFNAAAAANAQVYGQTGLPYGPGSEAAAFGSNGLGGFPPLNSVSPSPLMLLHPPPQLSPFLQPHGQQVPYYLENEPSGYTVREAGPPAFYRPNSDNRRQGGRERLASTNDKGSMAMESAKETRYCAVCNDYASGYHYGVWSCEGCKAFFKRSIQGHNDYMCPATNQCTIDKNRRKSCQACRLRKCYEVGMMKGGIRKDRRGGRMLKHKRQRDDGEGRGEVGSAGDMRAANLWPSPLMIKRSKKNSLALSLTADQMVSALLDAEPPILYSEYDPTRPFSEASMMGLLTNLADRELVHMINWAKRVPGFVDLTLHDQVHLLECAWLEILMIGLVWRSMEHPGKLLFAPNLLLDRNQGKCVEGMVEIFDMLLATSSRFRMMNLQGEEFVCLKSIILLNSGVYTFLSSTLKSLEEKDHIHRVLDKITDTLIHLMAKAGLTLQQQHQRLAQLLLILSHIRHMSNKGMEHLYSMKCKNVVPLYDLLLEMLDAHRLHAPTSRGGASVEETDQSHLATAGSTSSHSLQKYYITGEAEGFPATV", "assay": "Nuclear receptor selectivity panel (PathHunter NHR protein interaction assay)", "conditions": "relative to 17β-estradiol"}, "FXR": {"target": "T2, FXR (Homo sapiens, UniProt Q96RI1)", "T2 sequence (Q96RI1 1-486)": "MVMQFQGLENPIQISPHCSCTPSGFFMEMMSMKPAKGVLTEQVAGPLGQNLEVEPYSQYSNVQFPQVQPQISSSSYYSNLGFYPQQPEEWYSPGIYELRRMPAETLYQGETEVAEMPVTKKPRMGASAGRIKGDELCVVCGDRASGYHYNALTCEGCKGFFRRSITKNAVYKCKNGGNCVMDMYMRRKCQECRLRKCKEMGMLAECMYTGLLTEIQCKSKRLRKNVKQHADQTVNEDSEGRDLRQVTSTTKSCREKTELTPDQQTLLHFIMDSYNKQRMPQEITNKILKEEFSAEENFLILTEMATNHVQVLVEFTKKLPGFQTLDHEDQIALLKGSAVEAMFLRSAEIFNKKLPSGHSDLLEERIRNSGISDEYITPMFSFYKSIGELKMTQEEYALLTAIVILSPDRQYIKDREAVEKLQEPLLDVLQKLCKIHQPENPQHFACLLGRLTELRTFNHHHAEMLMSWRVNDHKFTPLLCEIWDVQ", "assay": "PathHunter NHR protein interaction assay, agonist mode (FXR)", "method": "PathHunter® CHO-K1 FXR protein interaction cells were expanded from freezer stocks according to standard procedures. Cells were seeded in a total volume of 20 μL into white walled, 384-well microplates and incubated at 37° C. for the appropriate time prior to testing. Assay media contained charcoal-dextran filtered serum to reduce the level of hormones present. For agonist determination, cells were incubated with sample to induce response. […] For antagonist determination, cells were pre-incubated with antagonist followed by agonist challenge at the EC80 concentration. […] Microplates were read following signal generation with a PerkinElmer Envision™ instrument for chemiluminescent signal detection. Compound activity was analyzed using CBIS data analysis suite (ChemInnovation, CA). For agonist mode assays, percentage activity was calculated using the following formula: % Activity=100%×(mean RLU of test sample−mean RLU of vehicle control)/(mean MAX control ligand−mean RLU of vehicle control).\nIn this assay, two weakly complementing fragments of the β-galactosidase are expressed within stably transfected cells. The complementing fragments of the β-galactosidase are translationally fused to the C-terminus of a full-length FXR and to the steroid receptor coactivator peptide (SRCP), respectively. When bound by ligand, the FXR will migrate to the nucleus and recruit the SRCP domain, whereby complementation occurs, generating a unit of active β-galactosidase and production of chemiluminescent signal. Thus, measurement of chemiluminescent signal directly reflects FXR-coactivator interaction."}, "LXRβ": {"target": "T3, LXRβ (Homo sapiens, UniProt P55055)", "T3 sequence (P55055 1-460)": "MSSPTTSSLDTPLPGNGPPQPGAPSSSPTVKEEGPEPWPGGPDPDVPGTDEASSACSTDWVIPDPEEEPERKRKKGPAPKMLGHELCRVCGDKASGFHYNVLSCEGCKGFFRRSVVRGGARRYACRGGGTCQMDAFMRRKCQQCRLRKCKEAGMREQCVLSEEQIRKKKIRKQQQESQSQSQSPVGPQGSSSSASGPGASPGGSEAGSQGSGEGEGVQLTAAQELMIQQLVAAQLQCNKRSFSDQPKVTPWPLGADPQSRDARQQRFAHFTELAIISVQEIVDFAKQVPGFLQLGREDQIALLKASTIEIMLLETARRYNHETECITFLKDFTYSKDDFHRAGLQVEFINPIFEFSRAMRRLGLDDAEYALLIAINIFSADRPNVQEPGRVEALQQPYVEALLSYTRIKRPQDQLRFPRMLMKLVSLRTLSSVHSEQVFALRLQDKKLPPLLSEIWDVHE", "assay": "Nuclear receptor selectivity panel (PathHunter NHR protein interaction assay)", "conditions": "read-out: % max. rel. efficacy at 100 uM, 100 μM; relative to TO901317"}, "PPARγ": {"target": "T4, PPARγ (Homo sapiens, UniProt P37231)", "T4 sequence (P37231 1-505)": "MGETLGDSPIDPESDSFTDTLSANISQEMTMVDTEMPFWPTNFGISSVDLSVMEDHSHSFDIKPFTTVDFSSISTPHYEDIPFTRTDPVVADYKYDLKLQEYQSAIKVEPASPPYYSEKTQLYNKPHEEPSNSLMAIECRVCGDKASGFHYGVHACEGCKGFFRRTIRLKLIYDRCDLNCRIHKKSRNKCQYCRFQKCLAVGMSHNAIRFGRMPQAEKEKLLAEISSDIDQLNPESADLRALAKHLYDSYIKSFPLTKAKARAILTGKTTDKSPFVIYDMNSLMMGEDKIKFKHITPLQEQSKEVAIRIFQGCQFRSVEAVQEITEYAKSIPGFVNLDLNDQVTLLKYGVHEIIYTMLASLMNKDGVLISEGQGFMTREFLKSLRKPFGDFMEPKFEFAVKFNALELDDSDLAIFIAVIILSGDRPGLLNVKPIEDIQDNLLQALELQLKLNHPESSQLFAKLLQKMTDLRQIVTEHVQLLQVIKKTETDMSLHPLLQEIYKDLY", "assay": "Nuclear receptor selectivity panel (PathHunter NHR protein interaction assay)", "conditions": "read-out: % max. rel. efficacy at 100 uM, 100 μM; relative to troglitazone"}}, "note": "Read-outs that look alike come from different tables or passages of the source. Marks after values point to notes of the source that are not given here."}
{"smiles": "COC(=O)/C=C/c1cccc(N(Cc2ccc(-c3ccc(N(C)C)cc3)c(C#N)c2)C(=O)C2CCCCC2)c1", "note": "[Example 4, (E)-3-(3-((2-cyano-4′-dimethylaminobiphenyl-4-ylmethyl)cyclohexanecarbonylamino)phenyl)acrylic Acid Methyl Ester]", "values": [{"measurement": "% max. rel. efficacy at 100 uM", "setting": "Erα", "result": 1, "unit": "%"}, {"measurement": "EC50", "setting": "FXR", "result": 1000, "unit": "nM"}, {"measurement": "EC50", "setting": "FXR; Table 2, 5 concentrations, 3-fold dilution from 3.3 μM (GW4064: 10 conc. from 10 μM), one experiment in duplicate, NA = inactive at 3.3 μM", "result": 800, "unit": "nM"}, {"measurement": "EC50", "setting": "FXR; Table 5, mean ± SEM of two or three independent experiments in duplicate", "result": "800 ± 100", "unit": "nM"}, {"measurement": "% max. rel. efficacy", "setting": "FXR; Table 5, relative to GW4064, mean ± SEM of two or three independent experiments in duplicate", "result": "40 ± 8^b %"}, {"measurement": "Emax at 100 µM", "setting": "FXR; read-out: % max. rel. efficacy at 100 uM, Table 3, 100 μM, relative to GW4064", "result": 47, "unit": "%"}, {"measurement": "Emax", "setting": "FXR; read-out: % max. rel. efficacy, Table 2, relative to GW4064, top conc. 3.3 μM, one experiment in duplicate", "result": 24, "unit": "%"}, {"measurement": "Emax", "setting": "FXR; read-out: % max. rel. efficacy, Table 4, relative to GW4064, top conc. 3.3 μM, one experiment in duplicate", "result": 47, "unit": "%"}, {"measurement": "Emax", "setting": "FXR; read-out: % max. rel. efficacy, Table 5, relative to GW4064, mean ± SEM of two or three independent experiments in duplicate", "result": "40 ± 8", "unit": "%"}, {"measurement": "Emax at 100 µM", "setting": "LXRβ", "result": "< 3", "unit": "%"}, {"measurement": "Emax at 100 µM", "setting": "PPARγ", "result": "< 3", "unit": "%"}]}
